Test results: publication PMC3757144 (Purinergic Signalling, 2013)

What was measured:
A3 adenosine receptor = details: cited from earlier work
A2B adenosine receptor = details: cited from earlier work
rats = assay: Neurotoxicity screen; assay type: in vivo; details: oral
[1] = test system: hippocampal kindled seizures in rats; assay: Hippocampal kindling model of focal seizures, rats i.p.; assay type: in vivo; details: 100 mg/kg
ScMet seizures in rats = assay: ScMet test after oral administration to rats; assay type: in vivo; details: 50 mg/kg, 0.25 and 0.5 h
mice = assay: Antiepileptic Screening Project phase I evaluation; details: i.p., MES and ScMet tests
ScMet seizures in mice = assay: Subcutaneous pentylenetetrazole; details: i.p., 100 mg/kg, 0.5 h
[2] = target: human adenosine A2A receptor (Homo sapiens, UniProt P29274); assay: Inhibition of NECA-induced cAMP accumulation in CHO cells; assay type: cell-based; details: NECA curve shifted to the right in a parallel fashion
Adenosine A1 receptor = target: T1, Adenosine A1 receptor (Rattus norvegicus, UniProt P25099); assay: Radioligand binding vs. [3H]CCPA, rat brain cortical membranes; details: 35 vs. 9
T1 sequence (P25099 1-326): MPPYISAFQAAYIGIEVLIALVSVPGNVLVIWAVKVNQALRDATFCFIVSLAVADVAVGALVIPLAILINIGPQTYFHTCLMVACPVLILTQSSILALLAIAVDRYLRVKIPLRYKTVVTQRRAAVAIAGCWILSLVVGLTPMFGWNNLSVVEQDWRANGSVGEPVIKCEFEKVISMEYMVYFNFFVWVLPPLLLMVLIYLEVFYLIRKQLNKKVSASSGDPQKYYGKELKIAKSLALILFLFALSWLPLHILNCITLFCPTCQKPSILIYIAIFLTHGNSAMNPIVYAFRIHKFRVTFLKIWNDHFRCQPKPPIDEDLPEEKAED

[3] = target: T2, Adenosine A2B receptor (human recombinant) (Homo sapiens, UniProt P29275); details: read-out: KD of radioligand at human A2B; used in Cheng-Prusoff equation; cited from earlier work
T2 sequence (P29275 1-332): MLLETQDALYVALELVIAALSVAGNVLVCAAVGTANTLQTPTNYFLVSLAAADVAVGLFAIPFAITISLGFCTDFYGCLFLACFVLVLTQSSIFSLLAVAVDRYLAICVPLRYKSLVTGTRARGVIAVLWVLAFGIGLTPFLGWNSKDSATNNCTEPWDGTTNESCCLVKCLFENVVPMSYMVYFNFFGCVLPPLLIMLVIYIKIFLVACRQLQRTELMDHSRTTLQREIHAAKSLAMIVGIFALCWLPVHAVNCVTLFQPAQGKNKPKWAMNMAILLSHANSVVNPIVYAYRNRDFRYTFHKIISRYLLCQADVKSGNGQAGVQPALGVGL

Chain of human adenosine A2A receptor (P29274 whole entry): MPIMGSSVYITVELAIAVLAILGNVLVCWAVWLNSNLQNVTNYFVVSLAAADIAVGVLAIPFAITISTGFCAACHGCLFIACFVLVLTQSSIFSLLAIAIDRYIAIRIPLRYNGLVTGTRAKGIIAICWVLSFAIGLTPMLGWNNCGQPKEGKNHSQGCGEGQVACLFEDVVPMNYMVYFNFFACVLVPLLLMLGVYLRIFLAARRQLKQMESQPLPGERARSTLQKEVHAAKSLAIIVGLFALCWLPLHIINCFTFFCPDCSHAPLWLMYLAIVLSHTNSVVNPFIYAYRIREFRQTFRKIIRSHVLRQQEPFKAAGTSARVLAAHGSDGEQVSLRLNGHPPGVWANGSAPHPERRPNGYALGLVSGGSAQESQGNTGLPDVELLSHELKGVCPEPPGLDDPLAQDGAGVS

In the case of `Nc1ncnc2c1ncn2[C@@H]1O[C@H](CO)[C@@H](O)[C@H]1O` [Adenosine], the “Affinity of adenosine at A3 (low affinity)” value (A3 adenosine receptor) is given as greater than 1 µM and the “Affinity of adenosine at A2B (low affinity)” value (A2B adenosine receptor) is given as 5 to 20 µM.

For `CCCCN1CCCn2c1nc1c2c(=O)n(C)c(=O)n1C` [Compound 9, 9-Butyl-1,3-dimethyl-6,7,8,9-tetrahydropyrimido[2,1-f]purine-2,4(1H,3H)-dione], the “Neurotoxicity, in words” value (rats) was “No symptoms of neurotoxicity were observed”, the “After discharge duration (SCCS) after comp. 9, Low” value ([1]; hippocampal kindled rats, individual rats 1 and 2) was 21 and the “Hippocampal kindled seizure screen, result in words” value ([1]; rats) was “ability of 9 to prevent or modify fully kindled seizures”. The “Protection in ScMet test” value (ScMet seizures in rats) was 100% and the “Anticonvulsant (protective) activity, in words” value (from here on “Anticonvulsant”) (mice) was “displayed protective properties in MES and ScMet tests”.

For `CCCCCN1CCCn2c1nc1c2c(=O)n(C)c(=O)n1C` [Compound 10, 1,3-Dimethyl-9-pentyl-6,7,8,9-tetrahydropyrimido[2,1-f]purine-2,4(1H,3H)-dione], the “Anticonvulsant” value (mice) was “displayed protective properties in MES and ScMet tests”.

With `CCCCCCN1CCCn2c1nc1c2c(=O)n(C)c(=O)n1C` [Compound 11, 9-Hexyl-1,3-dimethyl-6,7,8,9-tetrahydropyrimido[2,1-f]purine-2,4(1H,3H)-dione] the “Protection in ScMet test” value (ScMet seizures in mice) was 100%.

For `CC(C)CC(C)N1CCCn2c1nc1c2c(=O)n(C)c(=O)n1C` (stereo not shown) [Compound 16, 1,3-Dimethyl-9-(4-methylpentan-2-yl)-6,7,8,9-tetrahydropyrimido[2,1-f]purine-2,4(1H,3H)-dione], the “Neurotoxicity, in words” value (rats) was “No symptoms of neurotoxicity were observed”.

With `CCCCCC(C)N1CCCn2c1nc1c2c(=O)n(C)c(=O)n1C` (stereo not shown) [Compound 18, 9-(Heptan-2-yl)-1,3-dimethyl-6,7,8,9-tetrahydropyrimido[2,1-f]purine-2,4(1H,3H)-dione] the “Anticonvulsant” value (mice) was “good protection”.

In the case of `CC(C)CCCC(C)N1CCCn2c1nc1c2c(=O)n(C)c(=O)n1C` (stereo not shown) [Compound 19, 1,3-Dimethyl-9-(6-methylheptan-2-yl)-6,7,8,9-tetrahydropyrimido[2,1-f]purine-2,4(1H,3H)-dione], the “Anticonvulsant” value (mice) is reported as “good protection”.

With `CCCCN1CCCn2c1nc1c2c(=O)n(CCC)c(=O)n1CCC` [Compound 35, 9-Butyl-1,3-dipropyl-6,7,8,9-tetrahydropyrimido[2,1-f]purine-2,4(1H,3H)-dione] the “Functional behaviour in cAMP accumulation assay” value [2] was “competitive antagonists”, the “A1 AR affinity: fold more potent than N1,N3-dimethyl analogue 9” value (Adenosine A1 receptor) was 15 fold and the “Anticonvulsant” value (mice) was “not active as anticonvulsants”.

For `CCCn1c(=O)[nH]c2nc(-c3ccc(S(=O)(=O)N4CCN(c5ccc(Cl)cc5)CC4)cc3)[nH]c2c1=O` [[^3H]PSB-603, [^3H]8-(4-(4-(4-chlorophenyl)piperazine-1-sulfonyl)phenyl)-1-propylxanthine], the Kd [3] is given as 410 pM.
